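Five concentrations, 48 hours, 96-well plates. The concentration for 50% growth inhibition is given as GI50. TGI: total growth inhibition.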
Experiments:
Assay in all cases: inhibition of tumour cell growth, NCI panel, 48 h
[1] = test system: U251 CNS
[2] = test system: SK-MEL-28 melanoma
[3] = test system: SNB-75 CNS
[4] = test system: LOX IMVI melanoma
[5] = test system: RPMI-8226 leukemia
[6] = test system: SNB-19 CNS
[7] = test system: BT-549 breast
[8] = test system: KM12 colon
[9] = test system: MCF7 breast
[10] = test system: HCT-116 colon
[11] = test system: OVCAR-8 ovarian
[12] = test system: MOLT-4 leukemia
[13] = test system: MDA-MB-231 breast
[14] = test system: CCRF-CEM leukemia
[15] = test system: HCT-15 colon
[16] = test system: TK-10 renal
[17] = test system: HCC-2998 colon
[18] = test system: UACC-62 melanoma
[19] = test system: OVCAR-3 ovarian
[20] = test system: MDA-MB-435
[21] = test system: DU-145 prostate
[22] = test system: SK-MEL-5 melanoma
[23] = test system: NCI-H23 lung
[24] = test system: SF-268 CNS
[25] = test system: K-562 leukemia
[26] = test system: PC-3 prostate
[27] = test system: NCI/ADR-RES ovarian
[28] = test system: SW-620 colon
[29] = test system: T-47D breast
[30] = test system: CAKI-1 renal
[31] = test system: SN12C renal
[32] = test system: NCI-H460 lung
[33] = test system: EKVX NSCLC
[34] = test system: SK-OV-3 ovarian
[35] = test system: A549 NSCLC
[36] = test system: HT29 colon
[37] = test system: ACHN renal
[38] = test system: SF-295 CNS
[39] = test system: HOP-62 NSCLC
[40] = test system: UO-31 renal
[41] = test system: SF-539 CNS
[42] = test system: OVCAR-4 ovarian
[43] = test system: NCI-H522 lung
[44] = test system: 786-0 renal
[45] = test system: SK-MEL-2 melanoma
[46] = test system: HOP-92 NSCLC
[47] = test system: M14 melanoma
[48] = test system: IGROV1 ovarian
[49] = test system: A498 renal
[50] = test system: SR leukemia
[51] = test system: NCI-H226 lung
[52] = test system: OVCAR-5 ovarian
[53] = test system: HL-60(TB) leukemia
[54] = test system: HS 578T breast
[55] = test system: UACC-257 melanoma

SMILES: [N-]=[N+]=NCCCn1c2c(c3cc4c(cc3c1=O)OCO4)C(=O)c1ccccc1-2
- GI50 [1]: > 100 µM
- TGI [1]: > 100 µM
- GI50 [2]: > 100 µM
- TGI [2]: > 100 µM
- GI50 [3]: 72.8 µM
- TGI [3]: > 100 µM
- GI50 [4]: 13.5 µM
- TGI [4]: > 100 µM
- GI50 [5]: > 100 µM
- TGI [5]: > 100 µM
- GI50 [6]: > 100 µM
- TGI [6]: > 100 µM
- GI50 [7]: > 100 µM
- TGI [7]: > 100 µM
- GI50 [8]: > 100 µM
- TGI [8]: > 100 µM
- GI50 [9]: 7.5 µM
- TGI [9]: > 100 µM
- GI50 [10]: 40.1 µM
- TGI [10]: > 100 µM
- GI50 [11]: 21.6 µM
- TGI [11]: 87.3 µM
- GI50 [12]: 0.0905 µM
- TGI [12]: 13.7 µM
- GI50 [13]: > 100 µM
- TGI [13]: > 100 µM
- GI50 [14]: 39.2 µM
- TGI [14]: > 100 µM
- GI50 [15]: > 100 µM
- TGI [15]: > 100 µM
- GI50 [16]: 42.6 µM
- TGI [16]: > 100 µM
- GI50 [17]: > 100 µM
- TGI [17]: > 100 µM
- GI50 [18]: 87.3 µM
- TGI [18]: > 100 µM
- GI50 [19]: 71.9 µM
- TGI [19]: > 100 µM
- GI50 [20]: 10.3 µM
- TGI [20]: > 100 µM
- GI50 [21]: 17.5 µM
- TGI [21]: > 100 µM
- GI50 [22]: 3.52 µM
- TGI [22]: 31.3 µM
- GI50 [23]: 42.8 µM
- TGI [23]: > 100 µM
- GI50 [24]: > 100 µM
- TGI [24]: > 100 µM
- GI50 [25]: 28.7 µM
- TGI [25]: > 100 µM
- GI50 [26]: > 100 µM
- TGI [26]: > 100 µM
- GI50 [27]: > 100 µM
- TGI [27]: > 100 µM
- GI50 [28]: > 100 µM
- TGI [28]: > 100 µM
- GI50 [29]: > 100 µM
- TGI [29]: > 100 µM
- GI50 [30]: 89.1 µM
- TGI [30]: > 100 µM
- GI50 [31]: > 100 µM
- TGI [31]: > 100 µM
- GI50 [32]: 62.8 µM
- TGI [32]: > 100 µM
- GI50 [33]: > 100 µM
- TGI [33]: > 100 µM
- GI50 [34]: > 100 µM
- TGI [34]: > 100 µM
- GI50 [35]: 93.5 µM
- TGI [35]: > 100 µM
- GI50 [36]: > 100 µM
- TGI [36]: > 100 µM
- GI50 [37]: 13.1 µM
- TGI [37]: 86 µM
- GI50 [38]: 32.4 µM
- TGI [38]: > 100 µM
- GI50 [39]: 39 µM
- TGI [39]: > 100 µM
- GI50 [40]: > 100 µM
- TGI [40]: > 100 µM
- GI50 [41]: > 100 µM
- TGI [41]: > 100 µM
- GI50 [42]: > 100 µM
- TGI [42]: > 100 µM
- GI50 [43]: 75 µM
- TGI [43]: > 100 µM
- GI50 [44]: 67.7 µM
- TGI [44]: > 100 µM
- GI50 [45]: 91.1 µM
- TGI [45]: > 100 µM
- GI50 [46]: 64.2 µM
- TGI [46]: > 100 µM
- GI50 [47]: 43 µM
- TGI [47]: > 100 µM

SMILES: CC(=O)NS(=O)(=O)c1ccc(-n2nc(-c3ccc(Cl)cc3)cc2-c2cc(O)ccc2O)cc1
- GI50 [48]: 92.8 µM
- TGI [48]: > 100 µM
- GI50 [5]: 21.1 µM
- TGI [5]: 59.8 µM
- GI50 [7]: > 100 µM
- TGI [7]: > 100 µM
- GI50 [8]: 41.1 µM
- TGI [8]: > 100 µM
- GI50 [9]: > 100 µM
- TGI [9]: > 100 µM
- GI50 [11]: 33 µM
- TGI [11]: > 100 µM
- GI50 [12]: 87.3 µM
- TGI [12]: > 100 µM
- GI50 [13]: 10.9 µM
- TGI [13]: 22.8 µM
- GI50 [49]: 24.8 µM
- TGI [49]: 93.4 µM
- GI50 [14]: 5.55 µM
- TGI [14]: > 100 µM
- GI50 [15]: 13.6 µM
- TGI [15]: 26.5 µM
- GI50 [16]: 31.7 µM
- TGI [16]: 92.6 µM
- GI50 [17]: 20.7 µM
- TGI [17]: 39.7 µM
- GI50 [18]: 14.5 µM
- TGI [18]: 27.6 µM
- GI50 [19]: 32.6 µM
- TGI [19]: 84.9 µM
- GI50 [20]: 31.6 µM
- TGI [20]: > 100 µM
- GI50 [21]: 21.5 µM
- TGI [21]: 47.5 µM
- GI50 [50]: 39.5 µM
- TGI [50]: > 100 µM
- GI50 [22]: 36.4 µM
- TGI [22]: > 100 µM
- GI50 [23]: 18.6 µM
- TGI [23]: 32.6 µM
- GI50 [24]: 52.1 µM
- TGI [24]: > 100 µM
- GI50 [25]: 29.9 µM
- TGI [25]: 96 µM
- GI50 [26]: 13.8 µM
- TGI [26]: 30 µM
- GI50 [27]: 27.2 µM
- TGI [27]: 70 µM
- GI50 [28]: 75 µM
- TGI [28]: > 100 µM
- GI50 [51]: 14.4 µM
- TGI [51]: 36.2 µM
- GI50 [52]: 20.1 µM
- TGI [52]: 40 µM
- GI50 [30]: 28.1 µM
- TGI [30]: 56.9 µM
- GI50 [31]: 19.6 µM
- TGI [31]: 40.8 µM
- GI50 [32]: > 100 µM
- TGI [32]: > 100 µM
- GI50 [33]: 46.1 µM
- TGI [33]: > 100 µM
- GI50 [35]: 34.9 µM
- TGI [35]: > 100 µM
- GI50 [38]: 30.9 µM
- TGI [38]: > 100 µM
- GI50 [53]: 40.8 µM
- TGI [53]: > 100 µM
- GI50 [40]: 20.5 µM
- TGI [40]: 45.6 µM
- GI50 [41]: 32.4 µM
- TGI [41]: 81.6 µM
- GI50 [43]: 37 µM
- TGI [43]: > 100 µM
- GI50 [54]: 62.2 µM
- TGI [54]: > 100 µM
- GI50 [55]: 15.9 µM
- TGI [55]: 45.7 µM
- GI50 [44]: 16.1 µM
- TGI [44]: 29.6 µM
- GI50 [45]: > 100 µM
- TGI [45]: > 100 µM
- GI50 [46]: 17.1 µM
- TGI [46]: 48.4 µM
- GI50 [47]: 14 µM
- TGI [47]: 27 µM

— PubChem BioAssay (NCI)
